Measured values reported in ChEMBL document CHEMBL3758139, “Novel thiol-based histone deacetylase inhibitors bearing 3-phenyl-1H-pyrazole-5-carboxamide scaffold as surface recognition motif: Design, synthesis and SAR study” (Bioorg Med Chem Lett, 2016).

Legend:
Histone deacetylase 1 = Histone deacetylase 1 (Homo sapiens, UniProt Q13547); experiment: Inhibition of HDAC1 (unknown origin)
Histone deacetylase 2 = Histone deacetylase 2 (Homo sapiens, UniProt Q92769); experiment: Inhibition of HDAC2 (unknown origin)
Chain of Histone deacetylase 2 (Q92769 whole entry): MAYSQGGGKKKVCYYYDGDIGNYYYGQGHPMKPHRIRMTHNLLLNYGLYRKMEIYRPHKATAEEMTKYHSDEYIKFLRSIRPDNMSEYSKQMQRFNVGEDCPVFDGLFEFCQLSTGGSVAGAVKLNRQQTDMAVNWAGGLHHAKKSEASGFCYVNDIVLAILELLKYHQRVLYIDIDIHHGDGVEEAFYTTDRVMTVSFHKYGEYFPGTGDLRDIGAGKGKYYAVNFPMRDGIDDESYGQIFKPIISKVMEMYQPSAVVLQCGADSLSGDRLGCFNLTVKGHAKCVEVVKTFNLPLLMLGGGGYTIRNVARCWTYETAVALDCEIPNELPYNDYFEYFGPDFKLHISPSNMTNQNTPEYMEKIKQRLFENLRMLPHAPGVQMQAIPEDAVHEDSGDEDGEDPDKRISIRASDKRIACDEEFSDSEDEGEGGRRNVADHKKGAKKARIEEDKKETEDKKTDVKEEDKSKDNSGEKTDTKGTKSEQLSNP

Histone deacetylase 3 = Histone deacetylase 3 (Homo sapiens, UniProt O15379); experiment: Inhibition of HDAC3 (unknown origin)
Chain of Histone deacetylase 3 (O15379 whole entry): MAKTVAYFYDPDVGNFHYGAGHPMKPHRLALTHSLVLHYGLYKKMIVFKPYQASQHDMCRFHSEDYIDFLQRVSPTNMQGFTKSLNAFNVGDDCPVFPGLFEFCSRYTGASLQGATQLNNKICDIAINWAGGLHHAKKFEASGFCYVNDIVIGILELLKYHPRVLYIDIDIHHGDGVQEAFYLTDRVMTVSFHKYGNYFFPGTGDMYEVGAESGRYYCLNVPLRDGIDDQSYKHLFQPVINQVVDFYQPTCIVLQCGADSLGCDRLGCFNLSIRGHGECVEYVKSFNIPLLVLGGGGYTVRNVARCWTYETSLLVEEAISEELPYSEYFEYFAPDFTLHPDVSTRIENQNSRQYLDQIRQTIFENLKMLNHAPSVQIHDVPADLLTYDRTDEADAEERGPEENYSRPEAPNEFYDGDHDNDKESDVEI

Histone deacetylase 4 = Histone deacetylase 4 (Homo sapiens, UniProt P56524); experiment: Inhibition of HDAC4 (unknown origin)
Chain of Histone deacetylase 4 (P56524 whole entry): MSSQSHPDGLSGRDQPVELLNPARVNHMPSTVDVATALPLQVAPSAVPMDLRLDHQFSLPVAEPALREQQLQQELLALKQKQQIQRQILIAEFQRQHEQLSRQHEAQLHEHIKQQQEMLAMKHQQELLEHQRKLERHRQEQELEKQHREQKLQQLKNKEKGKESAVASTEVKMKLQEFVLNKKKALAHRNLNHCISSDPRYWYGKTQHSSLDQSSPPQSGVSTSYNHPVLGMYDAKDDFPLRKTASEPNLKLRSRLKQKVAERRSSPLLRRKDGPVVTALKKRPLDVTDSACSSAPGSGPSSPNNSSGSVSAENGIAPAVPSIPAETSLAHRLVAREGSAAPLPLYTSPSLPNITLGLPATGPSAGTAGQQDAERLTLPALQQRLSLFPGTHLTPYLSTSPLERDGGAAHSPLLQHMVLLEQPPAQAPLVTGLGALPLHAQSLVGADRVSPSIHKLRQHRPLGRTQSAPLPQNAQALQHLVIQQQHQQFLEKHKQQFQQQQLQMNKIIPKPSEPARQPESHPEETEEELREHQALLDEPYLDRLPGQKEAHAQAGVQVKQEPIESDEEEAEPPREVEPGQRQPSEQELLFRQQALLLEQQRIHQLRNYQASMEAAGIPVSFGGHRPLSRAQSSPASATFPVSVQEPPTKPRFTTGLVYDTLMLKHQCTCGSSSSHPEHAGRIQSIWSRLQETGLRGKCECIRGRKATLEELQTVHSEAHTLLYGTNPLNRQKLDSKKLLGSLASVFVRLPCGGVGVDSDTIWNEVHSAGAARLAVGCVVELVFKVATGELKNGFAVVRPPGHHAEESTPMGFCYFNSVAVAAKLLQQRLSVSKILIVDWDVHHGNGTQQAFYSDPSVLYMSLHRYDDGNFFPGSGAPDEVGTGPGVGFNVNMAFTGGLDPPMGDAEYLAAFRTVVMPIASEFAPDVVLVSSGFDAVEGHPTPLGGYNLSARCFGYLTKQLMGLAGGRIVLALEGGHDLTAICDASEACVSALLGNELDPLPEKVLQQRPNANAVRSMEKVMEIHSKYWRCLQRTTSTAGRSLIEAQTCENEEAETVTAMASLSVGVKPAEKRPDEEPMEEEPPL

[1] = molecular target: T1, Protein deacetylase HDAC6 (Homo sapiens, UniProt Q9UBN7); experiment: Inhibition of HDAC6 (unknown origin)
T1 sequence (Q9UBN7 whole entry): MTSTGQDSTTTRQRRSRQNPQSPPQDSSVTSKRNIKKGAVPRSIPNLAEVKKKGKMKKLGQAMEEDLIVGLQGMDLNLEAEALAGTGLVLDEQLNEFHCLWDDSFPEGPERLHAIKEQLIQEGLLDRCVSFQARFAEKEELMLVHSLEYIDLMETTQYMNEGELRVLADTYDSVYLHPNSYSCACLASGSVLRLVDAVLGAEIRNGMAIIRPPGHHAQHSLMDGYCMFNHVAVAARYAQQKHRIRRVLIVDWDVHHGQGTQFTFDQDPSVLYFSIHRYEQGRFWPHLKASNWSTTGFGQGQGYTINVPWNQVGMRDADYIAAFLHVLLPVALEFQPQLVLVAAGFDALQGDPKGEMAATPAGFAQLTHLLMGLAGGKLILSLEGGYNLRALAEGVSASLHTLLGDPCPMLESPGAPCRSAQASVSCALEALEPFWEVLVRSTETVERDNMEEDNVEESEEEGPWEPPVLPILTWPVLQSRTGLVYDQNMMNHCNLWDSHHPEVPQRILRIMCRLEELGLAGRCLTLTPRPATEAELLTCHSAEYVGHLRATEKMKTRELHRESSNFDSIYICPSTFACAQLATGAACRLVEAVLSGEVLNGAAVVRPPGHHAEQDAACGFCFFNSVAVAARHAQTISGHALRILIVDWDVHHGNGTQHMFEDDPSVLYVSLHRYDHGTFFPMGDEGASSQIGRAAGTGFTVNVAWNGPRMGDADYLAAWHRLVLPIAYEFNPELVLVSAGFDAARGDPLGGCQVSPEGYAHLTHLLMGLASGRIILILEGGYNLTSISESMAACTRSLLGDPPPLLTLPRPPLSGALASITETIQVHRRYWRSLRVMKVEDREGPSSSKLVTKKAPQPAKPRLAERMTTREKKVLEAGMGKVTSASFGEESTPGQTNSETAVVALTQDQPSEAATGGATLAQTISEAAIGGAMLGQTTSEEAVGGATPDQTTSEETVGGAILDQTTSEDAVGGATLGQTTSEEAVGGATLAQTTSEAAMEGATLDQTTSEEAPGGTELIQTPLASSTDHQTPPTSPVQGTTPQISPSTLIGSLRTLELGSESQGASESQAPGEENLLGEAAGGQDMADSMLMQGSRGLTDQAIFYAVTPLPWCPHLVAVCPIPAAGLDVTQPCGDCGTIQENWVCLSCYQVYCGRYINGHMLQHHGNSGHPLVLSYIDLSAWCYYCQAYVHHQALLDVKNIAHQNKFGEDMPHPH

Histone deacetylase 8 = molecular target: T2, Histone deacetylase 8 (Homo sapiens, UniProt Q9BY41); experiment: Inhibition of HDAC8 (unknown origin)
T2 sequence (Q9BY41 whole entry): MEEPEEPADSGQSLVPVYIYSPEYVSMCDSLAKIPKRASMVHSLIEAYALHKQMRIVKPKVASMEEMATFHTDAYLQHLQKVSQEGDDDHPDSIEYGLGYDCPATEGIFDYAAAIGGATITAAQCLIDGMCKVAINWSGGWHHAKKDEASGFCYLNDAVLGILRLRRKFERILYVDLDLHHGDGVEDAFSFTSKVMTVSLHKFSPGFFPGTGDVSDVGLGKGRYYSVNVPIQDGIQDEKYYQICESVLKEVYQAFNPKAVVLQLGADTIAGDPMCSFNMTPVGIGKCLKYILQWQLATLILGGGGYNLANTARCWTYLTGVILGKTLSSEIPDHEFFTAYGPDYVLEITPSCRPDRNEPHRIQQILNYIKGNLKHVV

Chain of Histone deacetylase 1 (Q13547 whole entry): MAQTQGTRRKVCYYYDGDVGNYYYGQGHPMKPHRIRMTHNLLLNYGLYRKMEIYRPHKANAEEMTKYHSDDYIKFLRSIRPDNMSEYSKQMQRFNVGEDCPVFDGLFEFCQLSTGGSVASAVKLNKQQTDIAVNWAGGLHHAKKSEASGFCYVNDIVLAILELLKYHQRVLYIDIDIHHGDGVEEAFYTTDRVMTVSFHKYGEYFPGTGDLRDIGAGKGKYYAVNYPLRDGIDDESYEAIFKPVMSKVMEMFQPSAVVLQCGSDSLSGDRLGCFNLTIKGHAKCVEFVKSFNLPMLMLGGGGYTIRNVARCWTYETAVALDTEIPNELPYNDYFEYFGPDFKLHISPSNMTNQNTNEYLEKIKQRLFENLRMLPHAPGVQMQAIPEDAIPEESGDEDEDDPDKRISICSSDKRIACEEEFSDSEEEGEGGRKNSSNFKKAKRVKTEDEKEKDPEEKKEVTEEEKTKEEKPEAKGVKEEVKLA

CC(=O)SCCCCCCNC(=O)c1cc(-c2ccc(F)cc2)nn1C
IC50 (Histone deacetylase 1): 21 nM | IC50 (Histone deacetylase 2): 140 nM | IC50 (Histone deacetylase 3): 68 nM | IC50 (Histone deacetylase 4): 10000 nM | IC50 [1]: 10000 nM | IC50 (Histone deacetylase 8): 4200 nM
